The source of these data is patent US8715704B2, “Lure” (London School of Hygiene & Tropical Medicine, priority 2008, dated 2014).

The subject of experiment [1] is Caloglyphus polyphyllae mites. As to conditions: Shimizu et al., 2001; cited from earlier work.
Experiment [2] has as its system Dermatophagoides farinae. Description: Y-tube olfactometer behavioural bioassay. The class given is in vivo. As to the method: (§1) A Y-tube olfactometer was used to observe the behavioural responses elicited by house dust mites, as described previously (Skelton et al., in press). For each experiment, a treatment and control stimulus was added (1 μl) to separate filter paper discs (1.5 cm diameter), allowed to dry for 1 min, and placed into each arm of the olfactometer. A power analysis was carried out at 80% power, 95% significance; to calculate appropriate sample sizes to see 40% difference in effect (70% to treatment) (STATA 8.2 software). […] Treatments comprised: (1) chromatography fractions derived from the D. farinae extract .v. hexane, (2) neryl formate (10 & 100 ng/μl) .v. hexane, (3) a female D. farinae extract .v. neryl formate, (4) a male D. farinae extract .v. neryl formate, and (5) a female D. pteronyssinus extract .v. neryl formate. Categorical data from the Y-tube olfactometer bioassays were tested with a Chi-squared test for goodness of fit, with a Yates correction factor (preference to a particular arm) (Fowler et al., 1998). Time data were log 10-transformed prior to parametric data analysis. A three-way ANOVA (Minitab 11 for Windows) was carried out to analyse if the log time to make a decision in the treatment arm (neryl formate) was affected by the concentration of neryl formate, gender and house dust mite species studied.

The subject of experiment [3] is Dermatophagoides pteronyssinus. Description: Y-tube olfactometer behavioural bioassay. In kind it is in vivo. As to conditions: for global responses (males and females) to the arm containing neryl formate: x^2=11.025, P<0.01, n=40. The method, then:
as §1

Experiment [4] concerns Dermatophagoides farinae. Description: Semi-field carpet disc lure bioassay with sticky trap. In kind it is in vivo. Conditions: 10 ng/10 μl neryl formate in hexane on filter paper v. hexane; cut pile and loop pile carpet; 1-40 min. The method, then:
(§2) Initially, a bioassay was designed to test the efficacy of neryl formate in attracting populations of the American house dust mite, Dermatophagoides farinae, and the European house dust mite, D. pteronyssinus, from carpet sections. The bioassay involved the placement of D. farinae and D. pteronyssinus onto cut carpet discs (5 cm in diameter) which were placed underneath a glass Petri dish to maintain humidity. Two types of carpet (both obtained from Heuga Home Flooring BV) were tested: cut pile (Simply Soft Aquarius) and loop pile (Working Week Boucle Ink Pad). Aliquots of a 10 ng/10 μl neryl formate solution (in hexane) were used for the lure treatment, whilst hexane alone was used for the control. Both solutions were injected onto filter paper discs (2 cm diameter) and placed into the centre of the carpet discs. After an allocated time interval (1, 5, 10, 20 or 40 min), a sticky trap was placed onto the carpet to capture the mites, and subsequently placed under a microscope to record the amount and position of the mites, to ascertain if the mites had moved from their original position. Data were analysed using a generalized linear model assuming a binomial distribution with a logit link and dispersion parameter equal to 1.0 (see Table 1). The analysis of deviance for both responses was obtained using the MODEL procedure as implemented in GenStat 8.0 (Rothamsted Research).

Experiment [5] deals with Dermatophagoides pteronyssinus. Described as above. The class given is in vivo. Conditions: 10 ng/10 μl neryl formate in hexane on filter paper v. hexane; cut pile and loop pile carpet; 1-40 min. The method, then: as §2
In experiment [6] the test system is Dermatophagoides farinae. The experiment is described as follows: Acaricide lethal dosage bioassay. In kind it is in vivo.
Experiment [7] has as its system Lardoglyphus konoi. As to conditions: 10 ng/μl; Kuwahara et al., 1991; cited from earlier work.
Setting [8] is: 10 ng v. hexane, x^2=6.05, P<0.05, n=20.

The structures appear in SMILES notation. Where a name gives a salt, the structure may show the parent alone.

In the case of `CC(C)=CC/C=C(/C=O)CC=O` [β-acaridial], the “amount at which mites significantly respond” value in experiment [1] is 10 ng.

As to `CC(C)=CCC/C(C)=C\COC=O` [neryl formate, (Z)-3,7-dimethyl-2,6-octadienyl formate], the “response of females to neryl formate” value was “significant response” in experiment [2] (setting [8]); “significant response” in experiment [3] (10 ng v. hexane, x^2=4.05, P<0.05, n=20); “significant response” in experiment [3] (100 ng v. hexane, x^2=8.45, P<0.01, n=20). Also, the “global responses of males and females to the arm containing neryl formate” value is “significant” in experiment [2] (10 ng v. hexane, x^2=9.025, P<0.01, n=40) and “significant” in experiment [2] (100 ng v. hexane, x^2=4.225, P<0.05, n=40). In addition, the “response of males to neryl formate” value in experiment [2] (100 ng v. hexane, x^2=6.05, P<0.05, n=20) is recorded as “significant response”; in experiment [3] (setting [8]), “significant response”. Besides, the “response to neryl formate or con-specific extract” value in experiment [2] (females, v. female D. farinae extract, x^2=1.38, P=0.24, n=18) is “no significant difference”. Also, in experiment [2] (males, v. male D. farinae extract, x^2=0.10, P=0.75, n=14), the “response to synthetic neryl formate or con-specific extract containing naturally produced neryl formate” value is given as “no significant difference”. The “global responses (males and females) to the arm containing neryl formate” value in experiment [3] (10 ng v. hexane) and in experiment [3] (100 ng v. hexane) was “significant” throughout. Further, the “response to synthetic neryl formate or con-specific extract” value in experiment [3] (females, v. female D. pteronyssinus extract, x^2=0.06, P=0.80, n=16) is “not significantly different”. Besides, the “number of mites retrieved on sticky traps” value in experiment [4] and in experiment [5] was “significantly increased” in each case.

Regarding `C/C=C(\C)C(=O)O[C@H]1C[C@@H](OC(C)=O)[C@@]2(C(=O)OC)CO[C@H]3[C@@H](O)[C@@](C)([C@]45O[C@@]4(C)[C@H]4C[C@@H]5O[C@@H]5OC=C[C@@]54O)[C@H]4[C@]1(CO[C@]4(O)C(=O)OC)[C@@H]32` [azadirachtin], in experiment [6], the mortality entry is listed as “little mortality”.

On to `CCC[C@@H](C)C[C@@H](C)C[C@@H](C)C[C@@H](C)OC=O` [(1R,3R,5R,7R) lardolure, (1R,3R,5R,7R)-1,3,5,7-tetramethyldecyl formate], for which the “concentration at which mites significantly respond” value in experiment [7] is given as 10 ppm.
